According to the NIST ThermoML archive (doi:10.1021/acs.jced.7b00665):
Numbers after ± are expanded uncertainties.

Key:
[1] = Molar enthalpy of transition or fusion; conditions: Crystal; DSC
[2] = Crystal; DTA

Q: Which “Molar enthalpy of transition or fusion” value [1] does the source give for `OC/C=C/c1ccccc1` [trans-cinnamyl alcohol] here?
A: Its value is 13.7 ± 1.2 kJ/mol.

Q: What about the Normal melting temperature [2] of the same compound?
A: The Normal melting temperature was 32.47 ± 0.61 °C.
